Measurements reported in US6358885B1, “Substituted phenylheterocyclic herbicides” (Mississippi State University, priority 1992, dated 2002).

What was measured:
giant foxtail [1] = test: Test C preemergence/postemergence greenhouse plant response rating 0 to 100; assay type: in vivo, Setaria faberii; settings: POSTEMERGENCE
Method in brief: (§1)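 Compounds in non-phytotoxic solvent went onto sandy loam before emergence (seeded one day earlier) or onto plants at the one-to-four leaf stage. Duck salad was treated via flood water (~2.5 cm, maintained) over silt loam.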

barley = test: as above; assay type: in vivo, Hordeum vulgare; settings: POSTEMERGENCE
Method in brief: as §1

cotton [2] = test: Test B preemergence/postemergence greenhouse plant response rating 0 to 10; assay type: in vivo, Gossypium hirsutum; settings: for Plant response rating, Cotton: 0 to 10 scale
Method in brief: (§2)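 Test chemicals, dissolved in a non-phytotoxic solvent, were applied to soil at planting and, at the same time, over foliage of seedlings at the one to four leaf stage.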

bedstraw = test: as above; assay type: in vivo, Galium aparine; settings: POSTEMERGENCE
Method in brief: as §2

chickweed = test: Test C preemergence/postemergence greenhouse plant response rating 0 to 100; assay type: in vivo, Stellaria media; settings: POSTEMERGENCE
Method in brief: as §1

giant foxtail [3] = test: Test B preemergence/postemergence greenhouse plant response rating 0 to 10; assay type: in vivo, Setaria faberii; settings: 0 to 10 scale
Method in brief: as §2

soybean = test: Test C preemergence/postemergence greenhouse plant response rating 0 to 100; assay type: in vivo, Glycine max; settings: POSTEMERGENCE
Method in brief: as §1

lambsquarters = test: as above; assay type: in vivo, Chenopodium album; settings: POSTEMERGENCE
Method in brief: as §1

morningglory = test: Test B preemergence/postemergence greenhouse plant response rating 0 to 10; assay type: in vivo, Ipomoea hederacea; settings: 0 to 10 scale
Method in brief: as §2

umbrella sedge = test: Test C flood test plant response rating 0 to 100; assay type: in vivo, Cyperus difformis
From the text: (§3) The compounds evaluated in this test were formulated in a non-phytoxic solvent and applied to the soil surface before plant seedlings emerged (preemergence application), to water that covered the soil surface (flood application), and to plants that were in the one-to-four leaf stage (postemergence application). A sandy loam soil was used for the preemergence and postemergence tests, while a silt loam soil was used in the flood test. Water depth was approximately 2.5 cm for the flood test and was maintained at this level for the duration of the test. Plant species in the preemergence and postemergence tests consisted of barley (Hordeum vulgare), bedstraw (Galium aparine), blackgrass (Alopecurus myosuroides), chickweed (Stellaria media), corn (Zea mays), cotton (Gossypium hirsutum), crabgrass (Digitaria sanguinalis), downy brome (Bromus tectorum), giant foxtail (Setaria faberii), lambsquarters (Chenopodium album), morningglory (Ipomoea hederacea), pigweed ([…]), rape (Brassica napus), ryegrass (Lolium multiflorum), sorghum (Sorghum bicolor), soybean (Glycine max), speedwell (Veronica persica), sugar beet (Beta vulgaris), velvetleaf (Abutilon theophrasti), wheat (Triticum aestivum), wild buckwheat (Polygonum convolvulus), and wild oat (Avena fatua). All plant species were planted one day before application of the compound for the preemergence portion-of this test. Plantings of these species were adjusted to produce plants of appropriate size for the post-emergence portion of the test. […] All plant species were grown using normal greenhouse practices. Visual evaluations of injury expressed on treated plants, when compared to untreated controls, were recorded approximately fourteen to twenty one days after application of the test compound. […] A dash (-) response means no test result.

rape = test: Test B preemergence/postemergence greenhouse plant response rating 0 to 10; assay type: in vivo, Brassica napus; settings: 0 to 10 scale
Method in brief: as §2

cocklebur = test: as above; assay type: in vivo, Xanthium pensylvanicum; settings: for Plant response rating, Cocklebur: 0 to 10 scale
Method in brief: as §2

crabgrass = test: as above; assay type: in vivo, Digitaria spp.; settings: for Plant response rating, Crabgrass: 0 to 10 scale
Method in brief: as §2

pigweed = test: Test C preemergence/postemergence greenhouse plant response rating 0 to 100; assay type: in vivo, Amaranthusretroflexus; settings: POSTEMERGENCE
Method in brief: as §1

cotton [4] = test: as above; assay type: in vivo, Gossypium hirsutum; settings: POSTEMERGENCE
Method in brief: as §1

duck salad = test: Test C flood test plant response rating 0 to 100; assay type: in vivo, Heteranthera limosa
From the text: as §3

cheatgrass = test: Test B preemergence/postemergence greenhouse plant response rating 0 to 10; assay type: in vivo, Bromus secalinus; settings: for Plant response rating, Cheatgrass: 0 to 10 scale
Method in brief: as §2

velvetleaf = test: Test C preemergence/postemergence greenhouse plant response rating 0 to 100; assay type: in vivo, Abutilon theophrasti; settings: POSTEMERGENCE
Method in brief: as §1

[5] = POSTEMERGENCE section, flood test, Rate 1 g/ha
[6] = POSTEMERGENCE section, flood test, Rate 4 g/ha
[7] = Rate 16 g/ha, under POSTEMERGENCE head (flood test species)
[8] = flood test species listed under POSTEMERGENCE, 62 g/ha, 0 to 100 scale

CC(C)N1C(=O)COc2cc(F)c(-c3nn4c(c3Cl)CCCC4)cc21 [Compound 31]
5: Plant response rating, Giant foxtail (giant foxtail [3]; POSTEMERGENCE, Rate 10 g/ha) | Plant response rating, Giant foxtail (giant foxtail [3]; POSTEMERGENCE, Rate 50 g/ha) | Plant response rating, Morningglory (morningglory; PREEMERGENCE, Rate 50 g/ha) | Plant response rating, Rape (rape; POSTEMERGENCE, Rate 10 g/ha) | Plant response rating, Cheatgrass (cheatgrass; POSTEMERGENCE, Rate 10 g/ha)
9: Plant response rating, Morningglory (morningglory; POSTEMERGENCE, Rate 10 g/ha) | Plant response rating, Rape (rape; POSTEMERGENCE, Rate 50 g/ha) | Plant response rating, Cocklebur (cocklebur; POSTEMERGENCE, Rate 10 g/ha) | Plant response rating (0 to 10 scale), Cocklebur (cocklebur; POSTEMERGENCE, Rate 50 g/ha)
40: Plant response rating, Giant foxtail (giant foxtail [1]; 62 g/ha, 0 to 100 scale) | Plant response rating (0 to 100), Barley Igri (barley; Rate 16 g/ha) | Plant response rating (0 to 100), Soybean (soybean; Rate 4 g/ha) | Plant response rating (0 to 100), Lambsquarters (lambsquarters; Rate 1 g/ha) | Plant response rating (0 to 100), Duck salad (duck salad; [7]) | Plant response rating Duck salad (duck salad; [8])
100: Plant response rating Pigweed (pigweed; 62 g/ha, 0 to 100 scale) | Plant response rating (0 to 100), Pigweed (pigweed; Rate 4 g/ha) | Plant response rating (0 to 100), Pigweed (pigweed; Rate 16 g/ha) | Plant response rating, Cotton (cotton [4]; 62 g/ha, 0 to 100 scale) | Plant response rating (0 to 100), Cotton (cotton [4]; Rate 4 g/ha) | Plant response rating (0 to 100), Cotton (cotton [4]; Rate 16 g/ha) | Plant response rating, Velvetleaf (velvetleaf; 62 g/ha, 0 to 100 scale) | Plant response rating (0 to 100), Velvetleaf (velvetleaf; Rate 16 g/ha)
1: Plant response rating, Rape (rape; PREEMERGENCE, Rate 50 g/ha)
6: Plant response rating (0 to 10 scale), Cheatgrass (cheatgrass; POSTEMERGENCE, Rate 50 g/ha) | Plant response rating, Cheatgrass (cheatgrass; PREEMERGENCE, Rate 50 g/ha)
20: Plant response rating (0 to 100), Giant foxtail (giant foxtail [1]; Rate 4 g/ha) | Plant response rating (0 to 100), Barley Igri (barley; Rate 1 g/ha) | Plant response rating (0 to 100), Chickweed (chickweed; Rate 4 g/ha)
80: Plant response rating (0 to 100), Chickweed (chickweed; Rate 16 g/ha) | Plant response rating, Soybean (soybean; 62 g/ha, 0 to 100 scale) | Plant response rating Umbrella sedge (umbrella sedge; [8])
50: Plant response rating Barley Igri (barley; 62 g/ha, 0 to 100 scale)
0: Plant response rating, Cotton (cotton [2]; PREEMERGENCE, Rate 10 g/ha) | Plant response rating, Cotton (cotton [2]; PREEMERGENCE, Rate 50 g/ha) | Plant response rating, Giant foxtail (giant foxtail [3]; PREEMERGENCE, Rate 10 g/ha) | Plant response rating (0 to 100), Umbrella sedge (umbrella sedge; [5]) | Plant response rating (0 to 100), Umbrella sedge (umbrella sedge; [6]) | Plant response rating (0 to 100), Umbrella sedge (umbrella sedge; [7]) | Plant response rating, Cocklebur (cocklebur; PREEMERGENCE, Rate 10 g/ha) | Plant response rating, Crabgrass (crabgrass; PREEMERGENCE, Rate 10 g/ha) | Plant response rating (0 to 100), Duck salad (duck salad; [5]) | Plant response rating (0 to 100), Duck salad (duck salad; [6])
10: Plant response rating (0 to 100), Giant foxtail (giant foxtail [1]; Rate 1 g/ha) | Plant response rating, Cotton (cotton [2]; POSTEMERGENCE, Rate 10 g/ha) | Plant response rating (0 to 10 scale), Cotton (cotton [2]; POSTEMERGENCE, Rate 50 g/ha) | Plant response rating, Bedstraw (bedstraw; Rate 10 g/ha, 0 to 10 scale) | Plant response rating (0 to 10 scale), Bedstraw (bedstraw; Rate 50 g/ha) | Plant response rating, Morningglory (morningglory; POSTEMERGENCE, Rate 50 g/ha)
4: Plant response rating, Crabgrass (crabgrass; POSTEMERGENCE, Rate 10 g/ha) | Plant response rating (0 to 10 scale), Crabgrass (crabgrass; POSTEMERGENCE, Rate 50 g/ha)
30: Plant response rating (0 to 100), Giant foxtail (giant foxtail [1]; Rate 16 g/ha) | Plant response rating (0 to 100), Barley Igri (barley; Rate 4 g/ha) | Plant response rating (0 to 100), Soybean (soybean; Rate 1 g/ha)
3: Plant response rating, Giant foxtail (giant foxtail [3]; PREEMERGENCE, Rate 50 g/ha) | Plant response rating, Cocklebur (cocklebur; PREEMERGENCE, Rate 50 g/ha)
90: Plant response rating, Chickweed (chickweed; 62 g/ha, 0 to 100 scale) | Plant response rating (0 to 100), Cotton (cotton [4]; Rate 1 g/ha)
60: Plant response rating (0 to 100), Soybean (soybean; Rate 16 g/ha)
2: Plant response rating, Crabgrass (crabgrass; PREEMERGENCE, Rate 50 g/ha) | Plant response rating, Cheatgrass (cheatgrass; PREEMERGENCE, Rate 10 g/ha)
95: Plant response rating Lambsquarters (lambsquarters; 62 g/ha, 0 to 100 scale) | Plant response rating (0 to 100), Pigweed (pigweed; Rate 1 g/ha) | Plant response rating (0 to 100), Velvetleaf (velvetleaf; Rate 4 g/ha)
85: Plant response rating (0 to 100), Lambsquarters (lambsquarters; Rate 16 g/ha) | Plant response rating (0 to 100), Velvetleaf (velvetleaf; Rate 1 g/ha)
